The text below walks through data of publication PMC4274051 (Nature, 2013).

The assay concerns the target K-Ras(G12C) (Homo sapiens, UniProt P01116, G12C). As to the kind of experiment: disulphide tethering, intact protein mass spectrometry. Format: binding.

K-Ras(G12C), sequence (P01116 1-169 isoform P01116-2 G12C): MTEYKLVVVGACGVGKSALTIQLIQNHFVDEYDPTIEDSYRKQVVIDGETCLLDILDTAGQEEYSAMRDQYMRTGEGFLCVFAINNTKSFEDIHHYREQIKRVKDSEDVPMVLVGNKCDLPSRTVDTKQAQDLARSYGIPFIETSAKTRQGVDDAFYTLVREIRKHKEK

Turning to `CN(C)CCSSCCNC(=O)C1CCN(C(=O)CSc2ccc(Cl)cc2)CC1` [6H05], the “% modification” value came to 94 ± 1 % modification.
